Square brackets hold non-standard residues; d marks the D form. Peptide text beside a SMILES is read from it. * marks the point of attachment. Asu = N[C@@H](CCCCCC(=O)O)C(=O)O; β3hL = CC(C)C[C@H](N)CC(=O)O; NHOH = ON*
Assays:
Histone deacetylase 2 = Histone deacetylase 2 (Homo sapiens, UniProt Q92769); experiment: Inhibition of HDAC2 (unknown origin) assessed as release of fluorogenic AMC pre-incubated for 15 mins followed by addition of trypsin and substrate measured after 60 mins microplate reader analysis
Sequence of Histone deacetylase 2 (Q92769 whole entry): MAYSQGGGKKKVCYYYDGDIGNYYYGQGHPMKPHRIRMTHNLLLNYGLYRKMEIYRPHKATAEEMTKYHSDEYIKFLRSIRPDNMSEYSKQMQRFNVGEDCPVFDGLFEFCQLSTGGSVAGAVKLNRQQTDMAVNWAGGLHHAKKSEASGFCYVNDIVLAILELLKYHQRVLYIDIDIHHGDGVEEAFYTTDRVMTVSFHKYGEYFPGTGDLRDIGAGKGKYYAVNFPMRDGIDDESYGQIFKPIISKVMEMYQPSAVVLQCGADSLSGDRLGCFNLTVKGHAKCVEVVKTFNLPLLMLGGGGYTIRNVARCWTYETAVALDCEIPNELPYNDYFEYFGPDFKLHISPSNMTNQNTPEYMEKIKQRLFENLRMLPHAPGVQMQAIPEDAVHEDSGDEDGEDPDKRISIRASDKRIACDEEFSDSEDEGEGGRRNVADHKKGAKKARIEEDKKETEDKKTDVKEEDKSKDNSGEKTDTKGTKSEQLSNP

Histone deacetylase 1 = Histone deacetylase 1 (Homo sapiens, UniProt Q13547); experiment: Inhibition of HDAC1 (unknown origin) using Ac-Leu-Gly-Lys(Ac)-AMC as substrate pre-incubated for 30 mins followed by substrate addition and measured after 30 mins by fluorescence based analysis
Sequence of Histone deacetylase 1 (Q13547 whole entry): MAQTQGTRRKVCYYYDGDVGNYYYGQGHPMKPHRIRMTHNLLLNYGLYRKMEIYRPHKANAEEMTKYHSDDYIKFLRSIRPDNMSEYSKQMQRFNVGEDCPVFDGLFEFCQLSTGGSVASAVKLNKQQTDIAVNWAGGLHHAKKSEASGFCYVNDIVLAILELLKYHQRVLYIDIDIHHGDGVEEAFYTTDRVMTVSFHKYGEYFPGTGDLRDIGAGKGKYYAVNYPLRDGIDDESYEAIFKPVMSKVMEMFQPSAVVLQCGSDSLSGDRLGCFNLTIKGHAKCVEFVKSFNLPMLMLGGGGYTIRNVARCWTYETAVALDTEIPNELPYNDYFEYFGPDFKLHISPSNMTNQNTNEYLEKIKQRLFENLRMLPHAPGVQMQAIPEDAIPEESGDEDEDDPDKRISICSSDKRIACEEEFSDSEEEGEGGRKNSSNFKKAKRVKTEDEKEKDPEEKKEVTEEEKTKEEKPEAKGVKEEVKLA

Jurkat [1] = experiment: cells; assay type: functional; details: Homo sapiens
Description: Growth inhibition of human Jurkat cells

Histone deacetylase 4 [2] = target: T1, Histone deacetylase 4 (Homo sapiens, UniProt P56524); experiment: Inhibition of HDAC4 (unknown origin) assessed as release of fluorogenic AMC pre-incubated for 15 mins followed by addition of trypsin and substrate measured after 60 mins microplate reader analysis
T1 sequence (P56524 whole entry): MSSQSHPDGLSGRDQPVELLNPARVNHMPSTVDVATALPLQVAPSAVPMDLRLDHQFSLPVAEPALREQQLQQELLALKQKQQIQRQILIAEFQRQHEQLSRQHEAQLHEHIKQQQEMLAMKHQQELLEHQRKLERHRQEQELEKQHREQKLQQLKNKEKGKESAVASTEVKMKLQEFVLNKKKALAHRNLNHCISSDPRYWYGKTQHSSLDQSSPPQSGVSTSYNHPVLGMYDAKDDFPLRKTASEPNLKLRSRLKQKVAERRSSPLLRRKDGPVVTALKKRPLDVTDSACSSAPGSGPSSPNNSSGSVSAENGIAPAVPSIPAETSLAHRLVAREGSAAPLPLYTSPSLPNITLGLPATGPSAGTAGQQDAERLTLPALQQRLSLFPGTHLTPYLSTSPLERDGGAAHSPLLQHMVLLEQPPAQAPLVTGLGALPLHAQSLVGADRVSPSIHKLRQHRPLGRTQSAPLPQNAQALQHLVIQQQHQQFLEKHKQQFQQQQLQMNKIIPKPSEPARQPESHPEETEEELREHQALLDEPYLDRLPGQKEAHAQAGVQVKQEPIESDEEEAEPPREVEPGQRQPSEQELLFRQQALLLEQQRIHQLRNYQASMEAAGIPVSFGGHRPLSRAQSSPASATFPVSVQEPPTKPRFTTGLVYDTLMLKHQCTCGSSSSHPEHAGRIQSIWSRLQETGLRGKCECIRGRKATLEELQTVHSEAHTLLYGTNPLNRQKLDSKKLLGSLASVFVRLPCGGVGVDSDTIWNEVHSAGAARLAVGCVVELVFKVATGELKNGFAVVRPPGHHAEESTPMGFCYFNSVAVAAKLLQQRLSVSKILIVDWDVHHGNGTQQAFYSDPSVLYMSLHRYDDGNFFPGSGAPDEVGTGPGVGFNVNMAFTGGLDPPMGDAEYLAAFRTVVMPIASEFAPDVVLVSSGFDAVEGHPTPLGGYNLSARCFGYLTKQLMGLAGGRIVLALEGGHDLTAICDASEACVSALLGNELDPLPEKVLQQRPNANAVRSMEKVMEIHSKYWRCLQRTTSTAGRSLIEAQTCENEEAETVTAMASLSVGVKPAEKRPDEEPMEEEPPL

[3] = Inhibition of HDAC6 (unknown origin) assessed as release of fluorogenic AMC pre-incubated for 15 mins followed by addition of trypsin and substrate measured after 60 mins microplate reader analysis; design: species or system Homo sapiens
Jurkat [4] = experiment: Cytotoxicity against human Jurkat cells assessed as reduction in cell viability measured after 24 hrs by Celltiter-Glo assay; assay type: functional, cell-based
Jurkat E6.1 = experiment: Cytotoxicity against human Jurkat E6.1 cells assessed as reduction in cell viability incubated for 72 hrs by MTT assay; assay type: functional, cell-based; details: Jurkat E6.1, 72 h
Histone deacetylase 8 [5] = target: T2, Histone deacetylase 8 (Homo sapiens, UniProt Q9BY41); experiment: Inhibition of human recombinant HDAC8 using fluorogenic HDAC substrate class 2A preincubated for 30 mins followed by substrate addition and measured after 15 mins by fluorogenic assay
T2 sequence (Q9BY41 whole entry): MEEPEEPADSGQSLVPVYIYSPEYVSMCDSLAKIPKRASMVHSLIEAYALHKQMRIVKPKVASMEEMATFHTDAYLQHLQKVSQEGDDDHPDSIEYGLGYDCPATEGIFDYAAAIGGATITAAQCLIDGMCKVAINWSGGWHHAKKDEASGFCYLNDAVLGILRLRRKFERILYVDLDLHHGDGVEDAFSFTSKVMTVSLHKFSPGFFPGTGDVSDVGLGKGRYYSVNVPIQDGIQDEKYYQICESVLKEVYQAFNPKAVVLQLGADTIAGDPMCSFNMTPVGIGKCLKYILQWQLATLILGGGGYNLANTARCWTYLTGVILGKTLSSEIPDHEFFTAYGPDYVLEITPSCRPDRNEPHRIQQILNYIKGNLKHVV

Jurkat [6] = experiment: Cytotoxicity against human Jurkat cells assessed as reduction in cell viability incubated for 24 hrs by CellTiter-Glo luminescent cell viability assay; assay type: functional
Histone deacetylase 3 = Histone deacetylase 3 (Homo sapiens, UniProt O15379); experiment: Inhibition of HDAC3 (unknown origin) assessed as release of fluorogenic AMC pre-incubated for 15 mins followed by addition of trypsin and substrate measured after 60 mins microplate reader analysis
Sequence of Histone deacetylase 3 (O15379 whole entry): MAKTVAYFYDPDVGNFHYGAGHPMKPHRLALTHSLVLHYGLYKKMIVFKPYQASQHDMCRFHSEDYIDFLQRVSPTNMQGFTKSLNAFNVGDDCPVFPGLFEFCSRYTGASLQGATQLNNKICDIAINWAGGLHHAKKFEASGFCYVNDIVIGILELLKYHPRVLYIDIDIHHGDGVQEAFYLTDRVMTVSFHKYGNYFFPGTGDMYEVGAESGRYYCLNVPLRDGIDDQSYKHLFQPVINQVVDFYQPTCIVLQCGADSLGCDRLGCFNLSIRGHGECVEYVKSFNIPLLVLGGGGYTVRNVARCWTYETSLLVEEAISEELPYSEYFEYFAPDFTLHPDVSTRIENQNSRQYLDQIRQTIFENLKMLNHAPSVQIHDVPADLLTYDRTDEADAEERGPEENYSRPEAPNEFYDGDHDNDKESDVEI

Histone deacetylase 8 [7] = target: T2, Histone deacetylase 8; experiment: Inhibition of HDAC8 (unknown origin) assessed as release of fluorogenic AMC pre-incubated for 15 mins followed by addition of trypsin and substrate measured after 60 mins microplate reader analysis
[8] = target: T3, Polyamine deacetylase HDAC10 (Homo sapiens, UniProt Q969S8); experiment: Inhibition of HDAC10 (unknown origin) assessed as release of fluorogenic AMC pre-incubated for 15 mins followed by addition of trypsin and substrate measured after 60 mins microplate reader analysis
T3 sequence (Q969S8 whole entry): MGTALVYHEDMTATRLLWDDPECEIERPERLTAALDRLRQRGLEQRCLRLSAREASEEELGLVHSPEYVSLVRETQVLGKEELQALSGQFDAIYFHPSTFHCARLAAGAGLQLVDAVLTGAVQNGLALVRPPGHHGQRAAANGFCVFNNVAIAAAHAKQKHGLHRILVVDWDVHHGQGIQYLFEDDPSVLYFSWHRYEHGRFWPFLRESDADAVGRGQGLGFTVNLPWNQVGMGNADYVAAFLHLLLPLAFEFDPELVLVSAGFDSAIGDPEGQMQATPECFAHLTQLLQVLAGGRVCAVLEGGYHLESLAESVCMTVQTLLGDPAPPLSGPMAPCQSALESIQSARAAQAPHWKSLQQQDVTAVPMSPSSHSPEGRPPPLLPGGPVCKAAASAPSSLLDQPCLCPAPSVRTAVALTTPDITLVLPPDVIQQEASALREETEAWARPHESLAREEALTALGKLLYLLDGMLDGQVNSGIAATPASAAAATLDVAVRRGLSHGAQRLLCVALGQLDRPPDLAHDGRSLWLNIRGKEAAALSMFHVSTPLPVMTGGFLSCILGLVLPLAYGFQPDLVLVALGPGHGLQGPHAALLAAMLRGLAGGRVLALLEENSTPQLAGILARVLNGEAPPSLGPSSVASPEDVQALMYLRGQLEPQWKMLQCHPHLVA

Histone deacetylase 8 [9] = target: T2, Histone deacetylase 8; experiment: Inhibition of HDAC8 (unknown origin)
[10] = target: T4, Histone deacetylase 8 (Homo sapiens) (UniProt Q9BY41); experiment: Inhibition of His-tagged recombinant HDAC8 (unknown origin) at 10 uM using Boc-Lys(triflouroacetyl)-AMC as fluorogenic substrate pre-incubated for 30 mins followed by substrate addition and measured after 30 mins by fluorescence based analysis relative to control; details: time 60.0 min
T4 sequence (whole entry): T2 sequence (Q9BY41 whole entry)

Histone deacetylase 8 [11] = target: T2, Histone deacetylase 8; experiment: Inhibition of human recombinant HDAC8 using AMC-K(Ac)GL as substrate by fluorescence based assay
MDA-MB-231 = experiment: Antiproliferative activity against human MDA-MB-231 cells assessed as reduction in cell viability incubated for 24 hrs by MTT assay; assay type: functional, cell-based; details: MDA-MB-231, 24 h
HeLa = experiment: Growth inhibition of human HeLa cells incubated for 72 hrs by trypan blue assay; assay type: functional
MCF7 = experiment: Antiproliferative activity against human MCF7 cells assessed as reduction in cell viability incubated for 24 hrs by MTT assay; assay type: functional, cell-based; details: MCF7, 24 h
Histone deacetylase 4 [12] = target: T1, Histone deacetylase 4; experiment: Inhibition of HDAC4 (unknown origin)
MOLT-4 = experiment: cells; assay type: functional; details: Homo sapiens, time 24 hrs
Description: Growth inhibition of human MOLT-4 cells measured after 24 hrs by MTT assay

[13] = target: T3, Polyamine deacetylase HDAC10; experiment: Inhibition of HDAC10 (unknown origin)
THP-1 = experiment: cells; assay type: functional; details: Homo sapiens
Description: Growth inhibition of human THP-1 cells

O=C(NO)c1cccc(-n2cc(CSc3ccccc3)nn2)c1
IC50 (Histone deacetylase 2): > 100 µM
IC50 (Histone deacetylase 1): > 100 µM
GI50 (Jurkat [1]): 24 µM
IC50 (Histone deacetylase 4 [2]): > 100 µM
IC50 [3]: 2.2 µM

O=C(CCCCCN1C(=O)c2cccc3cccc(c23)C1=O)NO
IC50 (Jurkat [4]): 6.1 µM

COc1ccc(/C=C/C(=O)NO)c(-c2ccc(-c3ccccc3)cc2)c1
IC50 [3]: > 20 µM

CCCCNC(=O)[C@H](CCC(=O)NO)NC(=O)Cc1ccc([N+](=O)[O-])cc1
IC50 (Jurkat E6.1): < 50 µM

O=C(NO)c1cccc(-c2csc(CSc3ccccc3)n2)c1
GI50 (Jurkat [1]): 2 µM

O=C1CN[C@H](Cc2cc3ccccc3[nH]2)C(=O)N1
IC50 (Histone deacetylase 8 [5]): 0.0511 µM

CCCCCNC(=O)[C@H](CCC(=O)NO)NC(=O)Cc1ccc(Cl)cc1
IC50 (Jurkat E6.1): < 50 µM

O=C1CN[C@@H](Cc2ccccc2)C(=O)N1
IC50 (Histone deacetylase 8 [5]): 0.0674 µM

O=C(/C=C/C#Cc1cccc(NS(=O)(=O)c2ccccc2)c1)NO
CC50 (Jurkat [6]): 5.9 µM

CCCCNC(=O)[C@H](CCC(=O)NO)NC(=O)Cc1ccc(Cl)cc1
IC50 (Jurkat E6.1): < 50 µM

CCCCNC(=O)[C@H](CCC(=O)NO)NC(=O)Cc1ccc(Cl)cc1Cl
IC50 (Jurkat E6.1): < 50 µM

O=C(NO)[C@@H](Cc1ccccc1)n1nnc(-c2ccccc2)c1C#CC1CC1
IC50 (Histone deacetylase 3): > 20 µM
IC50 (Histone deacetylase 8 [7]): 0.0008 µM
IC50 [8]: > 20 µM
IC50 (Histone deacetylase 2): > 20 µM
IC50 (Histone deacetylase 1): 4.3 µM
IC50 (Histone deacetylase 4 [2]): > 20 µM
IC50 [3]: 1.2 µM

COc1ccc(-c2cccc(-c3cc(OC)c(OC)c(OC)c3)n2)cc1/C=C/C(=O)NO
IC50 (Histone deacetylase 8 [9]): 0.117 µM

CC(C)C[C@H](NC(=O)[C@@H](O)[C@H](N)Cc1ccccc1)C(=O)NCCCCCC(=O)Nc1ccc(NC(=O)CCCCCCC(=O)NO)cc1
inhibition [10]: 90%

CCCCCNC(=O)[C@H](CCC(=O)NO)NC(=O)Cc1ccccc1Br
IC50 (Jurkat E6.1): > 50 µM

N[C@H](Cc1cccc(Cl)c1)C(=O)N1CCN(C(=O)c2cc(F)ccc2F)CC1
IC50 [3]: > 30 µM

CCCCCCNC(=O)[C@H](CCC(=O)NO)NC(=O)Cc1ccc(Br)cc1
IC50 (Jurkat E6.1): < 50 µM

CC(C)C[C@H]1CC(=O)N[C@@H](C)C(=O)N[C@@H](CCCCCC(=O)NO)C(=O)N[C@@H](Cc2c[nH]c3ccccc23)C(=O)N1 (cyclo([Asu](NHOH)W[β3hL]A))
IC50 (Histone deacetylase 8 [11]): 0.12 µM

COc1ccc(/C=C/C(=O)NO)c(-c2ccc3c(c2)OCO3)c1
IC50 (MDA-MB-231): 9.5 µM
GI50 (HeLa): 2 µM
IC50 (MCF7): 7.7 µM

N[C@H](Cc1ccc(Cl)cc1Cl)C(=O)N1Cc2ccccc2C1
IC50 [3]: > 30 µM

O=C(/C=C/c1cccc(S(=O)(=O)Nc2ccccc2)c1)NO [BELINOSTAT]
IC50 (Histone deacetylase 4 [12]): 0.015 µM
GI50 (Jurkat [1]): 0.11 µM
GI50 (MOLT-4): 0.12 µM
IC50 [13]: 0.059 µM
GI50 (THP-1): 0.075 µM
